A value given as a limit tells only on which side of the number the result lay.

In one series the target is mTOR (Homo sapiens, UniProt P42345). As to the kind of experiment: In vitro kinase assay, mTOR. The series is classed as biochemical. The following applies: Fig. 1b; italicized values from the literature (italics not visible).
A further series has as its target T1, BRD2 (BD2) (Homo sapiens, UniProt P25440).
T1 construct: tagged bromodomains and acetylated histone peptides as; purchased Reaction Biology
As to the kind of experiment: AlphaScreen bromodomain binding assay, BRD2 BD2. The following applies: Fig. 1b; italicized values from the literature (italics not visible). (Alpha assays give light when donor and acceptor beads are brought close together.)

Series [1] has as its system Hepatocellular carcinoma cells (Hep3B, HepG2, and Huh7). As to the kind of experiment: Cell viability (cytotoxicity) assay, hepatocellular carcinoma cells. The series is classed as cell-based. The following applies: Homo sapiens; 48 hours, CCK8 or Alamar Blue; curves of Fig. 1f-j; read-out: Half maximal inhibitory concentration (IC50) in cell line cytotoxicity assays, Hepatocellular Carcinoma. (Alamar Blue is a resazurin reagent that responds to reducing activity.)

For series [2], the system named is pRb Ser780 (downstream surrogate of CDK4/6 activity). Briefly: Immunoblotting for Rb phosphorylation. The series is classed as cell-based, human. Conditions: Huh7, CHLA-255 and Jeko-1 cells, stimulated with 50 ng/mL IGF-1, increasing concentrations, 30 minutes. An excerpt: (§1) from James Bradner (Dana-Farber Cancer Institute, Boston, MA). […]
(§2) from Novartis (Basel, Switzerland). Palbociclib was obtained from LC Laboratories (Woburn, MA). Recombinant human IGF-1 was from Peprotech (Rocky Hill, NJ). Antibodies specific for […]
(§3) Cell Signaling Technology (Beverly, MA). GAPDH antibody (GT239) was from GeneTex, Inc.
(§4) Molecular models were created to design and dock molecules in silico using the software engines AutoDock Vina1 and rDock2 and the crystal structures of BRD4 (PDB ID: 4CFK), PI3K (PDB ID: 4JPS) and CDK6 (PDB ID: 5L2T).
(§5) Bromodomain and kinase assays
(§6) Inhibition of BET family members was measured using Alpha Screen assays from Reaction Biology (Malvern, PA) with His -tagged bromodomains and acetylated histone peptides as ligands. CDK and PI3K isoform activities were measured using in vitro kinase assays from Reaction Biology and ThermoFisher Scientific (Waltham, MA), respectively. KINOME scan and BROMOscan assays were performed at Eurofins DiscoverX (Fremont, CA) with data analyzed […]
(§7) Protein expression and purification
(§8) BRD4 BD1 (aa 43-180) and BD2 (aa 342 -460) were expressed in E. coli BL21 (DE3) RIL in either Luria Broth or […] minimal media supplemented with 15NH4Cl. […]
(§9) or 100 µM in triplicate the following day. […] For CCK8, absorbance was measured at 450 nm; for Alamar Blue, fluorescence signals were read as emission at 590 nm after excitation at 560 nm. […]
(In general: A western blot detects proteins with antibodies after separation by electrophoresis.)

The test system of series [3] is NCI-60 Panel of Human Tumor Cell Line. The series is classed as cell-based. The following applies: 10 µM, one-dose assay.
Series [4] deals with pAKT Ser473 (downstream surrogate of PI3K activity). As to the kind of experiment: Immunoblotting for Akt phosphorylation. The series is classed as cell-based, human. The following applies: Huh7, CHLA-255 and Jeko-1 cells, stimulated with 50 ng/mL IGF-1, increasing concentrations, 30 minutes.
Text: as §1, §2, §3, §4, §5, §6, §7, §8, §9

The test system of series [5] is mantle cell lymphoma (Granta-519, Mino, and Jeko-1). Briefly: Cell viability (cytotoxicity) assay, mantle cell lymphoma cells. The series is classed as cell-based. The following applies: Homo sapiens; 48 hours, CCK8 or Alamar Blue; curves of Fig. 1f-j; read-out: Half maximal inhibitory concentration (IC50) in cell line cytotoxicity assays, Mantle Cell Lymphoma.
A further series deals with T2, PI3Kδ (Homo sapiens, UniProt O00329).
T2 construct: purchased ThermoFisher Scientific
T2 sequence (O00329 whole entry): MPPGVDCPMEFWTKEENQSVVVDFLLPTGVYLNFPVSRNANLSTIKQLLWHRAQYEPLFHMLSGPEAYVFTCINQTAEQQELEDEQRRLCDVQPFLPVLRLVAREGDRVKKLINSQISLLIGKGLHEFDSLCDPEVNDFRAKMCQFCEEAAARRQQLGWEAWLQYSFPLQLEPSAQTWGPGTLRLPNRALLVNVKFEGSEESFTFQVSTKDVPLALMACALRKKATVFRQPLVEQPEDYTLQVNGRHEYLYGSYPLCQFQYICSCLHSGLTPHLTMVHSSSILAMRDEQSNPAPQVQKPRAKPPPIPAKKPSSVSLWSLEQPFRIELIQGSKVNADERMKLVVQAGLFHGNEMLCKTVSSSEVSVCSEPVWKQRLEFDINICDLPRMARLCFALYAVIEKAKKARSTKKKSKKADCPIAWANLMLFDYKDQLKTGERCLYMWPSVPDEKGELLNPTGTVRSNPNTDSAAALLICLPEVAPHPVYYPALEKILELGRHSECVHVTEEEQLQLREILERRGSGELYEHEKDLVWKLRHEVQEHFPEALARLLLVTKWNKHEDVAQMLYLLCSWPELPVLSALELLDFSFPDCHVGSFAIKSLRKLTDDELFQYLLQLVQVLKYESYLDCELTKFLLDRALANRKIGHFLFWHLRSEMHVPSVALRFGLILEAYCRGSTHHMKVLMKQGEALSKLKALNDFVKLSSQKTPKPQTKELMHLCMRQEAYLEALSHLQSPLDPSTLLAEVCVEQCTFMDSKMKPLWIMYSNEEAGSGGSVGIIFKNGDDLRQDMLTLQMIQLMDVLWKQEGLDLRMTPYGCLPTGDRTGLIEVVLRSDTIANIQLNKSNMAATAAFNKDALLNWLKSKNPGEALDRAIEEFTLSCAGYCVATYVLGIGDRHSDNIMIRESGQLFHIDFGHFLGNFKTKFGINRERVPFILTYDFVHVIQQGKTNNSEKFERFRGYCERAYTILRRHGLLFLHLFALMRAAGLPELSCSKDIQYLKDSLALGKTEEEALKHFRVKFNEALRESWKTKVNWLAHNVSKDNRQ
T2 sequence (P27986 whole entry partner): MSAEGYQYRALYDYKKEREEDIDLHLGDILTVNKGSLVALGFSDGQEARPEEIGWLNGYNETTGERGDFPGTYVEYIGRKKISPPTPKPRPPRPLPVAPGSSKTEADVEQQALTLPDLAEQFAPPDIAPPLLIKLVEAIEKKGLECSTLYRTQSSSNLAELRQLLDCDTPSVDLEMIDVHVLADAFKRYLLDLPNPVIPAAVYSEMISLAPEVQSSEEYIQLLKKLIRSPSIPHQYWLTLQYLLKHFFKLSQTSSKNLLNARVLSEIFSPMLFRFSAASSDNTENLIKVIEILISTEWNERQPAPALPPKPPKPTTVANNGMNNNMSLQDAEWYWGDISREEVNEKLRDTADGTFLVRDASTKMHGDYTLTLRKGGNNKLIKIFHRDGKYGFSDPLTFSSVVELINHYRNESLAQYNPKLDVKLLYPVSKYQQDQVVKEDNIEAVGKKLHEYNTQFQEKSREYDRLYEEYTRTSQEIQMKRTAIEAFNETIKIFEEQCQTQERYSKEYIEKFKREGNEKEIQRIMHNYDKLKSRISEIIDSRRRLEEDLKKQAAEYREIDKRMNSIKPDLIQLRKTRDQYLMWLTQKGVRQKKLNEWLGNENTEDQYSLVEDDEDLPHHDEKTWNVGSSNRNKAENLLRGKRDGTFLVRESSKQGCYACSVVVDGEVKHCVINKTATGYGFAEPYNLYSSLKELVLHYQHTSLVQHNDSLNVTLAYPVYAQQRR
Briefly: In vitro kinase assay, PI3Kδ. The series is classed as biochemical. Conditions: Fig. 1b; italicized values from the literature (italics not visible).

The next series concerns the target DNA-PK (Homo sapiens, UniProt P78527). Briefly: In vitro kinase assay, DNA-PK. The series is classed as biochemical. Conditions: Fig. 1b; italicized values from the literature (italics not visible).
Series [6] in a line: Cell viability (cytotoxicity) assay, normal tonsillar epithelial cells. Conditions: human, normal tonsillar epithelial cells (RRP008), surrogate for toxicity of normal tissue, read-out: Half maximal inhibitory concentration (IC50) in cell line cytotoxicity assays, Tonsillar Epithelia. The series is classed as cell-based.
Another series concerns the target T3, BRD3 (BD1) (Homo sapiens, UniProt Q15059).
T3 construct: tagged bromodomains and acetylated histone peptides as; purchased Reaction Biology
Briefly: AlphaScreen bromodomain binding assay, BRD3 BD1. Conditions: Fig. 1b; italicized values from the literature (italics not visible).

For the next series, the target named is T4, BRD2 (BD1) (Homo sapiens, UniProt P25440).
T4 construct: tagged bromodomains and acetylated histone peptides as; purchased Reaction Biology
T4 sequence (P25440 74-180 limits assumed): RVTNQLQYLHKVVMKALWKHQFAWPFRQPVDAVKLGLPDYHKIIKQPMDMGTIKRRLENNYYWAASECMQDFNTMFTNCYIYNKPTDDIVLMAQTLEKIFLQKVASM
As to the kind of experiment: AlphaScreen bromodomain binding assay, BRD2 BD1. Conditions: Fig. 1b; italicized values from the literature (italics not visible).

Series [7] has as its system neuroblastoma cells (CHLA-255, CHLA-136, and SMS-KNCR). As to the kind of experiment: Cell viability (cytotoxicity) assay, neuroblastoma cells. The series is classed as cell-based. Conditions: Homo sapiens, 48 hours, CCK8 or Alamar Blue, curves of Fig. 1f-j, read-out: Half maximal inhibitory concentration (IC50) in cell line cytotoxicity assays, Neuroblastoma.
The next series deals with T5, CDK2 (Homo sapiens, UniProt P24941).
T5 construct: purchased Reaction Biology
As to the kind of experiment: In vitro kinase assay, CDK2. The series is classed as biochemical. Conditions: Fig. 1b; italicized values from the literature (italics not visible).

The target in the next series is T6, CDK9 (Homo sapiens, UniProt P50750).
T6 construct: purchased Reaction Biology
T6 sequence (P50750 whole entry): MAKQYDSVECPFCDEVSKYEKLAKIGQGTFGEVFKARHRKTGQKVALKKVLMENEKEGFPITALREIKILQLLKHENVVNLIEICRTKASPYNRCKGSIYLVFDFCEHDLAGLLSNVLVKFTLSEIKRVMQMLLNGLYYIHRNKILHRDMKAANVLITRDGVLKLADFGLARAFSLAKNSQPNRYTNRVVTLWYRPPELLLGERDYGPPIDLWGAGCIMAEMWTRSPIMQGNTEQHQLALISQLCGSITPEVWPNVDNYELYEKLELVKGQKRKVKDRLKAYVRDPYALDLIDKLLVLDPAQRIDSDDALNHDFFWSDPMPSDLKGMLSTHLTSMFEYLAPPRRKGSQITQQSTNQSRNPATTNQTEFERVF
T6 sequence (O60563 whole entry partner): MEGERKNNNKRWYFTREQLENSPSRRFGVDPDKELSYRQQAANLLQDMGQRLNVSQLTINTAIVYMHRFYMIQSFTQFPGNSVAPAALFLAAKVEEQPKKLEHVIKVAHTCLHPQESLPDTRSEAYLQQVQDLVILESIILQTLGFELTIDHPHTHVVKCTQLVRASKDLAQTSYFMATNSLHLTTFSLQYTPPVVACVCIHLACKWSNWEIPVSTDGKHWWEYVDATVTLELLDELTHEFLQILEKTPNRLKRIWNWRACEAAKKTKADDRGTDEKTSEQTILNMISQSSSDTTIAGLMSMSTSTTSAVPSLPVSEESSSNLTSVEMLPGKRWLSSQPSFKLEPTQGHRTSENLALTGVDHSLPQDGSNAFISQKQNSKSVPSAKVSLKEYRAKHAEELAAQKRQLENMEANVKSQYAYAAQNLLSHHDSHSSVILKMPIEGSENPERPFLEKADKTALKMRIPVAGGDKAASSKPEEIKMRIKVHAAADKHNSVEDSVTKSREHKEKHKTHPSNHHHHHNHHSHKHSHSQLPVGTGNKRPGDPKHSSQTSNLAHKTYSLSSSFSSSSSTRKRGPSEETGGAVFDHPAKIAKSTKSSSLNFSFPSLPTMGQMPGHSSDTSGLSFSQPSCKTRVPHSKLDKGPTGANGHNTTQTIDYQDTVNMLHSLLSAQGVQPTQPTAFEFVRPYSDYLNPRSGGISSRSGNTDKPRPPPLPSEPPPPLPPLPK
Briefly: In vitro kinase assay, CDK9. The series is classed as biochemical. The following applies: Fig. 1b; italicized values from the literature (italics not visible).

T1 sequence (P25440 344-453 limits assumed): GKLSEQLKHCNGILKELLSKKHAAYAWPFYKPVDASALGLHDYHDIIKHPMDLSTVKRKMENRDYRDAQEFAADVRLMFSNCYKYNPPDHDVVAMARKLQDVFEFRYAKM
T3 sequence (Q15059 34-140 limits assumed): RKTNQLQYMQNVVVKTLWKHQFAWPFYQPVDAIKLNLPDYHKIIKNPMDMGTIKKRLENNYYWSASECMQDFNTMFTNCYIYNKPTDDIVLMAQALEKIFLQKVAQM

Consider `CN(C)C(=O)c1cc2cnc(Nc3ccc(-c4csc5c(=O)cc(N6CCOCC6)oc45)cc3)nc2n1C1CCCC1` [SRX3177], for which the IC50 at mTOR was 6910 nM; on BRD2 (BD2), 994 nM; in series [1], 640 nM; in series [5], 830 nM; against PI3Kδ it was 83 nM; at DNA-PK, 21 nM. Besides, the IC50 is 106 nM at BRD3 (BD1); 1410 nM at BRD2 (BD1); 550 nM in [7]; 500 nM on CDK2; below 2 nM at CDK9. Moreover, the “levels of Rb phosphorylation” value in series [2] is “decrease in levels of Rb phosphorylation”. Further, in [3], the “cytotoxic effect in the NCI-60 panel” value is “cytotoxic effects on the majority of the cell lines tested”. In addition, in series [3] (NCI-60 panel), the “tumor cytotoxicity compared to SF2523 or SRX3177P” value is “greater tumor cytotoxicity”. Further, the “levels of Akt phosphorylation” value in series [4] is listed as “decrease in levels”. In addition, the IC50 at 48 h in series [6] was determined as 34000 nM.

These data come from paper PMC7385619, “A triple action CDK4/6-PI3K-BET inhibitor with augmented cancer cell cytotoxicity” (Cell Discovery, 2020).
